Among the data in patent publication US12686665B2, “Bicyclic fused ring derivative or salt thereof and pharmaceutical composition comprising same” (YUHAN CORPORATION, priority 2021, dated 2026) are IC50 values, retold here.

What all share (format): biochemical
The target of assay [1] is T1, recombinant human DAO (diamine oxidase) (Homo sapiens, UniProt P19801).
T1 construct: purchased R&D systems
T1 sequence (P19801 20-751): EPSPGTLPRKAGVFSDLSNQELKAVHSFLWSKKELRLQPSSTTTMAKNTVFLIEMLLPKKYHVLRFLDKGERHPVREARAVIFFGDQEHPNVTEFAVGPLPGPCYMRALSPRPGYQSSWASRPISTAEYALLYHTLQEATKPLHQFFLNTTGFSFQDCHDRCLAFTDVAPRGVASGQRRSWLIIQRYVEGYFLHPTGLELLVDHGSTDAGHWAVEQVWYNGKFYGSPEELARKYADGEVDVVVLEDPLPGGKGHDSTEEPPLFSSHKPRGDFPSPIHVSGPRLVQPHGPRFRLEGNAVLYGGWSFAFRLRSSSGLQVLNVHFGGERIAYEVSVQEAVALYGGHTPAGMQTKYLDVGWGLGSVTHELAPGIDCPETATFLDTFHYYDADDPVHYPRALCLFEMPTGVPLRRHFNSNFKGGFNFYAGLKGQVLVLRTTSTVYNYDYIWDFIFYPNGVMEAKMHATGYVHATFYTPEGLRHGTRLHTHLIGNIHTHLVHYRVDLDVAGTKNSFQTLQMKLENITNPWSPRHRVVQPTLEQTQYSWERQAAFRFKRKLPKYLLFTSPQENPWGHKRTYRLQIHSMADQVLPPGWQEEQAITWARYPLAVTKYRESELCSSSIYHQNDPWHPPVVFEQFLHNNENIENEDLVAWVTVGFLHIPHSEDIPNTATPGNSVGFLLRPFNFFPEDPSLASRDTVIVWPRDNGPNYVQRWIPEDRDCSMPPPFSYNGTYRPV
The assay can be described thus: Amplex Red HRP-coupled amine oxidase assay, recombinant human DAO. Particulars: 1 mM putrescine substrate, read-out: Inhibitory activity (IC50, nM) DAO. The protocol:
(§1) The activities of the compounds according to the present invention against recombinant human Lysyl Oxidase-Like 2 (recombinant human LOXL2, R&D systems) were evaluated by measuring the levels of hydrogen peroxide in the HRP (horseradish peroxidase) coupled reactions, with the Amplex Red Hydrogen Peroxide Assay Kit (Molecular Probes, Invitrogen, USA). The tests were carried out at 37° C., and putrescine was used as a substrate. In the HRP coupling reaction, the oxidation of 10-acetyl-3,7-dihydroxyphenoxazine (Amplex Red reagent) by hydrogen peroxide generates a fluorescent product, i.e., resorufin. Briefly, the test compounds were dissolved in dimethyl sulfoxide (DMSO) at a concentration of 20 mM. Dose-response measurements were carried out by serial dilutions in DMSO to generate a six-point curve. The upper concentration was adjusted according to the potency of the compound, and then diluted with the reaction buffer to obtain a final DMSO concentration of 1%. Purified human LOXL2 in 50 mM sodium phosphate buffer (pH7.4) was added to each well of a 96 well black plate. The test compounds dissolved in DMSO were incubated with the human LOXL2 enzyme at 37° C. for 60 minutes. After the incubation for 60 minutes, a reaction mixture containing 400 μM Amplex Red reagent, 30 mM putrescine, and 2 U/mL HRP in 50 mM sodium phosphate buffer (pH 7.4) was added to each well. Fluorescence was measured with a microplate reader (Flexstation3, Molecular Devices), under the conditions of excitation at 530 nm and emission at 590 nm, 1 hour after the addition of the mixture. Inhibition by each compound was measured as % reduction in signal, compared to the control without an inhibitor (diluted DMSO only). The data were fixed to a four-variable logistic model, and […] values were calculated using the GraphPad Prism program.
(§2) And, the activities of the compounds according to the present invention against recombinant human MAO-A (monoamine oxidase-A, Sigma-Aldrich) and recombinant human MAO-B (monoamine oxidase-B, Sigma-Aldrich) were evaluated in a similar manner to the activity evaluation method for recombinant human LOXL2, using 0.5 mM tyramine and 1 mM benzylamine as a substrate, respectively. In addition, the activities of the compounds according to the present invention against recombinant human DAO (diamine oxidase, R&D systems) were evaluated in a similar manner to the activity evaluation method for recombinant human LOXL2, using 1 mM putrescine as a substrate.

Assay [2] concerns the target T2, recombinant human MAO-B (monoamine oxidase-B) (Homo sapiens, UniProt P27338).
T2 construct: purchased Sigma-Aldrich
T2 sequence (P27338 1-520): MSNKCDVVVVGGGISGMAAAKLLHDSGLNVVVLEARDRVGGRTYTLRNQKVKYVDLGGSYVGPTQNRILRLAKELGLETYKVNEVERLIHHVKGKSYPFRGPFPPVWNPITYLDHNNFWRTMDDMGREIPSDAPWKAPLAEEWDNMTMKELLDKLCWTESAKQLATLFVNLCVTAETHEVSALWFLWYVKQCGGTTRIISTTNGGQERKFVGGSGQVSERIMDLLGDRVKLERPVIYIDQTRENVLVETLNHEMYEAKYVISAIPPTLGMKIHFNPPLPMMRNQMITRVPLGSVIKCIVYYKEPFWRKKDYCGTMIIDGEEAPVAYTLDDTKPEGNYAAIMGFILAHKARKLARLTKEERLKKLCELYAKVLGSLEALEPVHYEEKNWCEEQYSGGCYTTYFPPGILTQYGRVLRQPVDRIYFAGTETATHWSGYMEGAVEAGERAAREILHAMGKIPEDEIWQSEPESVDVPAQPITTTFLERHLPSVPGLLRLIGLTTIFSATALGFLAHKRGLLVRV
As to the kind of experiment: Amplex Red HRP-coupled amine oxidase assay, recombinant human MAO-B. Particulars: 1 mM benzylamine substrate, read-out: Inhibitory activity (IC50, nM) MAO-B. The protocol:
as §1, §2

The target in assay [3] is T3, recombinant human Lysyl Oxidase-Like 2 (LOXL2) (Homo sapiens, UniProt Q9Y4K0).
T3 construct: purchased R&D systems
T3 sequence (Q9Y4K0 26-774): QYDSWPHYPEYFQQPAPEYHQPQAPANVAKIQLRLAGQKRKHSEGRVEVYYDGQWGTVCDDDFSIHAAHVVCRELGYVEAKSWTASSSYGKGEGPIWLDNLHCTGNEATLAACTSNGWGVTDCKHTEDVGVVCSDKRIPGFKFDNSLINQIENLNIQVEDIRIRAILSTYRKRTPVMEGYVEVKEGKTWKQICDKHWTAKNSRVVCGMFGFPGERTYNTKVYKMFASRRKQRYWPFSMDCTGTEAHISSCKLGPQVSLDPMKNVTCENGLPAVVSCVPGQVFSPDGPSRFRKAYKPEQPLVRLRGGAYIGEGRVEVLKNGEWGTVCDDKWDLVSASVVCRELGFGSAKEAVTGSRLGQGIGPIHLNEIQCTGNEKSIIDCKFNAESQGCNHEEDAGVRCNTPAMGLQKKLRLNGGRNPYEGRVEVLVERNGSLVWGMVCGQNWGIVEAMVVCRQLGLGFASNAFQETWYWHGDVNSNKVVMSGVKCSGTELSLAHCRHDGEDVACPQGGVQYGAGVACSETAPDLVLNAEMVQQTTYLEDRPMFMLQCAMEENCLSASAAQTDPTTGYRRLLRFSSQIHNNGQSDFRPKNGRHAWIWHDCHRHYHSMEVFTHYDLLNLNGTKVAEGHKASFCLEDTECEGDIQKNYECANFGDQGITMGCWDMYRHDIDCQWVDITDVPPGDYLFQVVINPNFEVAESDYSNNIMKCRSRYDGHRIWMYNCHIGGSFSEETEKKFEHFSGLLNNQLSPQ
The assay can be described thus: Amplex Red HRP-coupled amine oxidase assay, recombinant human LOXL2. Particulars: 60 min incubation with enzyme at 37° C., putrescine substrate, read-out: Inhibitory activity (IC50, nM) human LOXL2. In a few lines:
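Putrescine substrate (30 mM) in 50 mM sodium phosphate pH 7.4, 37 °C; compounds preincubated 60 min with enzyme, 1% DMSO final, six-point curves. H2O2 detected via 400 μM Amplex Red/2 U/mL HRP, fluorescence (ex 530/em 590 nm) after 1 h; IC50 from four-parameter logistic fit of % signal reduction.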

Assay [4] concerns the target T4, recombinant human MAO-A (monoamine oxidase-A) (Homo sapiens, UniProt P21397).
T4 construct: purchased Sigma-Aldrich
T4 sequence (P21397 1-527): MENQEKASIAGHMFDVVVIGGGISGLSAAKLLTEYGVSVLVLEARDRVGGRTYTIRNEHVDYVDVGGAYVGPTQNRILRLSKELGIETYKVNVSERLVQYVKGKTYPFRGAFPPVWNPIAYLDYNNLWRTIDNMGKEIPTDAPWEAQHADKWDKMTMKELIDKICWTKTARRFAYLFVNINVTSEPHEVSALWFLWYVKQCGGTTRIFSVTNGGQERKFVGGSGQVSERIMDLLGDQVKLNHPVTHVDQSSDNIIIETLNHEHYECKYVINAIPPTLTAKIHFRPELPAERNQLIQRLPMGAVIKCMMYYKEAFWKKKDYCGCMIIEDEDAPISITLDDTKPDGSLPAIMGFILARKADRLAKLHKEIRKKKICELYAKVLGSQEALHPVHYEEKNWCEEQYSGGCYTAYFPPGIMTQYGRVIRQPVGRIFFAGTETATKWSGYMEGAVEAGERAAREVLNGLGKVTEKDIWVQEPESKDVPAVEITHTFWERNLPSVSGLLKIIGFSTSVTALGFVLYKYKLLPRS
The assay can be described thus: Amplex Red HRP-coupled amine oxidase assay, recombinant human MAO-A. Particulars: 0.5 mM tyramine substrate, read-out: Inhibitory activity (IC50, nM) MAO-A. The protocol: as §1, §2

Counter-ions that a name gives are not always drawn. Some results are limits rather than exact numbers.

Consider `COC(=O)c1cc(-c2cc(S(=O)(=O)NC3CC3)ccc2OC)c2ncn(C/C(F)=C/CN)c2c1` [Example 27, methyl (Z)-1-(4-amino-2-fluorobut-2-en-1-yl)-4-(5-(N-cyclopropylsulfamoyl)-2-methoxyphenyl)-1H-benzo[d]imidazol-6-carboxylate hydrochloride], for which the half-maximal inhibitory concentration (IC50) in assay [1] was 16100 nM; in assay [2], greater than 100000 nM; in assay [3] it was 31.3 nM; in assay [4] it was 45700 nM.

In the case of `COc1ccc(-c2cccc3c2nnn3C/C(F)=C/CN)cc1S(=O)(=O)N(C)C` [Example 102, (Z)-5-(1-(4-amino-2-fluorobut-2-en-1-yl)-1H-benzo[d][1,2,3]triazol-4-yl)-2-methoxy-N,N-dimethylbenzenesulfonamide hydrochloride], the IC50 in assay [1] stood at 37400 nM; in assay [2], 12400 nM; in assay [3], 17 nM; in assay [4], 86600 nM.

Regarding `Cc1cc(-c2cc(C#N)cc3c2ncn3C/C(F)=C/CN)n(C)n1` [Example 194, (Z)-1-(4-amino-2-fluorobut-2-en-1-yl)-4-(1,3-dimethyl-1H-pyrazol-5-yl)-1H-benzo[d]imidazol-6-carbonitrile hydrochloride], the IC50 is 7590 nM in assay [1], greater than 100000 nM in assay [2], 105 nM in assay [3] and 36800 nM in assay [4].

For the compound `CCS(=O)(=O)c1cccc(-c2cc(C(=O)OC)cc3c2ncn3C/C(F)=C/CN)c1` [Example 34, methyl (Z)-1-(4-amino-2-fluorobut-2-en-1-yl)-4-(3-(ethylsulfonyl)phenyl)-1H-benzo[d]imidazol-6-carboxylate hydrochloride], the IC50 in assay [1] is 495 nM; in assay [2] it was greater than 100000 nM; in assay [3] it was 37.6 nM; in assay [4], greater than 100000 nM.

Take `CNS(=O)(=O)c1ccc(OC)c(-c2cccc3c2nnn3C/C(F)=C/CN)c1` [Example 105, (Z)-3-(1-(4-amino-2-fluorobut-2-en-1-yl)-1H-benzo[d][1,2,3]triazol-4-yl)-4-methoxy-N-methylbenzenesulfonamide hydrochloride]: the IC50 in assay [1] was 36000 nM; in assay [2], greater than 100000 nM; in assay [3], 26 nM; in assay [4], 55100 nM.

On to `COC(=O)c1cc(-c2cccc(S(=O)(=O)N3CCC(F)(F)C3)c2)c2ncn(C/C(F)=C/CN)c2c1` [Example 22, methyl (Z)-1-(4-amino-2-fluorobut-2-en-1-yl)-4-(3-((3,3-difluoropyrrolidine-1-yl)sulfonyl)phenyl)-1H-benzo[d]imidazol-6-carboxylate hydrochloride], for which the IC50 was 5070 nM in assay [1], greater than 100000 nM in assay [2], 19.9 nM in assay [3] and 53300 nM in assay [4].

`CCc1nc2c(-c3cccc(S(=O)(=O)N(C)C)c3)cccc2n1C/C(F)=C/CN` [Example 84, (Z)-3-(1-(4-amino-2-fluorobut-2-en-1-yl)-2-ethyl-1H-benzo[d]imidazol-4-yl)-N,N-dimethyl benzenesulfonamide hydrochloride]: the IC50 in assay [1] was 6690 nM; in assay [2], greater than 100000 nM; in assay [3], 65 nM; in assay [4] it was 65000 nM.

For the compound `CNS(=O)(=O)c1cccc(-c2cc(F)cc3c2ncn3C/C(F)=C/CN)c1` [Example 10, (Z)-3-(1-(4-amino-2-fluorobut-2-en-1-yl)-6-fluoro-1H-benzo[d]imidazol-4-yl)-N-methylbenzenesulfonamide hydrochloride], the IC50 in assay [1] was 3920 nM; in assay [2], greater than 100000 nM; in assay [3], 22 nM; in assay [4] it was 65500 nM.

For the compound `Cc1nc2c(-c3cccc(S(=O)(=O)N(C)C)c3)cccc2n1C/C(F)=C/CN` [Example 56, (Z)-3-(1-(4-amino-2-fluorobut-2-en-1-yl)-2-methyl-1H-benzo[d]imidazol-4-yl)-N,N-dimeth ylbenzenesulfonamide hydrochloride], the IC50 is 227 nM in assay [1], greater than 100000 nM in assay [2], 74 nM in assay [3] and 6540 nM in assay [4].

In general, IC50 refers to the concentration that gives 50% inhibition.
